Measured values as given in ChEMBL document CHEMBL4732042, “Studies on the affinity of 6-[(n-(cyclo)aminoalkyl)oxy]-4H-chromen-4-ones for sigma 1/2 receptors” (RSC Med Chem, 2021).

How the values were obtained:
[1] = molecular target: Sigma non-opioid intracellular receptor 1 (Homo sapiens, UniProt Q99720); assay: Displacement of [3H]pentazocine from human sigma 1 receptor expressed in HEK293 cell membrane incubated for 2 hrs by liquid scintillation counting method; assay type: cell membranes
[2] = molecular target: T1, Sigma intracellular receptor 2 (Rattus norvegicus, UniProt Q5U3Y7); assay: Displacement of (+)-[3H]DTG from sigma 2 receptor in SPRD rat liver membrane incubated for 2 hrs by liquid scintillation counting method; assay type: cell membranes
T1 sequence (Q5U3Y7 whole entry): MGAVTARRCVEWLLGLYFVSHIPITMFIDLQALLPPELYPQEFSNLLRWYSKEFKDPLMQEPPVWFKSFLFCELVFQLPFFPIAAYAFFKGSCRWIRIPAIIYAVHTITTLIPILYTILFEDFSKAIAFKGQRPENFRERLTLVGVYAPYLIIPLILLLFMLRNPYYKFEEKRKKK

[3] = molecular target: T2, Amine oxidase [flavin-containing] B (Homo sapiens, UniProt P27338); assay: Inhibition of human MAO-B
T2 sequence (P27338 whole entry): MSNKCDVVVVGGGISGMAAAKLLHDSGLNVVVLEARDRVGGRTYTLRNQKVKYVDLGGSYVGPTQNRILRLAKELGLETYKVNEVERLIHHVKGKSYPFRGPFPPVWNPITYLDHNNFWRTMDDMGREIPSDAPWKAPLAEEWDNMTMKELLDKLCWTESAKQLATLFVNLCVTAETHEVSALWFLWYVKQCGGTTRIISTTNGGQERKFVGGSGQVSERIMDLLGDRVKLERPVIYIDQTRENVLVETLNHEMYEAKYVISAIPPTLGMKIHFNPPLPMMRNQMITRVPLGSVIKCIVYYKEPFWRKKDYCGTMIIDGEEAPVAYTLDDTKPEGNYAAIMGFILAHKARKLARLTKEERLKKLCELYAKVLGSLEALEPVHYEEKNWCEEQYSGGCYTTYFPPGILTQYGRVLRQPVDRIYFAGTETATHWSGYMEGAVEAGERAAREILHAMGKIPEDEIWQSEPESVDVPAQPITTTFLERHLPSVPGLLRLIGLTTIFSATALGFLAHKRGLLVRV

Cholinesterase = Cholinesterase (Homo sapiens, UniProt P06276); assay: Inhibition of human BuChE
[4] = molecular target: T3, MAO-B (amine oxidase [flavin-containing] B) (Homo sapiens, UniProt P27338); assay: Inhibition of human MAO-B assessed as residual activity at 10 uM; conditions: read-out: Activity
T3 sequence (P27338 whole entry): T2 sequence (P27338 whole entry)

Acetylcholinesterase = Acetylcholinesterase (Homo sapiens, UniProt P22303); assay: Inhibition of human AChE
Sequence of Acetylcholinesterase (P22303 whole entry): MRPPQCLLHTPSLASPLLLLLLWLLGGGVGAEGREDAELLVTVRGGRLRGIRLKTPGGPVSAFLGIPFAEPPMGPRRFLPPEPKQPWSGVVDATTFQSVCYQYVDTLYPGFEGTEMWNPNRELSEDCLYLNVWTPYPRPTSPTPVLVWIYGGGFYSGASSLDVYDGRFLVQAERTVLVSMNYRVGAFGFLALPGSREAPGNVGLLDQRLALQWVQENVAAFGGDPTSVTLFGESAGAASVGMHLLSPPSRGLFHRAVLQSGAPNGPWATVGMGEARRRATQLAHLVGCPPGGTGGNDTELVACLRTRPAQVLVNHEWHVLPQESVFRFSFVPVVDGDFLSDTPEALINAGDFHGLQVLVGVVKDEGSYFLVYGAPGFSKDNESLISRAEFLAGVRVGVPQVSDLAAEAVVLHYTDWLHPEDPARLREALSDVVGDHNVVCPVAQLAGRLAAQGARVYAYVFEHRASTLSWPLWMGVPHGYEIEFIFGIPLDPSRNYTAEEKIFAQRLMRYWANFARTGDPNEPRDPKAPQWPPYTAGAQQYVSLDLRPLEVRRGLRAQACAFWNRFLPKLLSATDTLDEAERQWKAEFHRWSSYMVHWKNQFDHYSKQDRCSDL

Sequence of Sigma non-opioid intracellular receptor 1 (Q99720 whole entry): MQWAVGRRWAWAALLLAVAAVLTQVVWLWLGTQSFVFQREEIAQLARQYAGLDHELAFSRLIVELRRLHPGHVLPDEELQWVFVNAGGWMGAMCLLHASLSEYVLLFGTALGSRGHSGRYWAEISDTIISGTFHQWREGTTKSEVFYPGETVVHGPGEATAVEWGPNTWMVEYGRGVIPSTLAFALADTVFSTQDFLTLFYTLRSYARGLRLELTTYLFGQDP
Sequence of Cholinesterase (P06276 whole entry): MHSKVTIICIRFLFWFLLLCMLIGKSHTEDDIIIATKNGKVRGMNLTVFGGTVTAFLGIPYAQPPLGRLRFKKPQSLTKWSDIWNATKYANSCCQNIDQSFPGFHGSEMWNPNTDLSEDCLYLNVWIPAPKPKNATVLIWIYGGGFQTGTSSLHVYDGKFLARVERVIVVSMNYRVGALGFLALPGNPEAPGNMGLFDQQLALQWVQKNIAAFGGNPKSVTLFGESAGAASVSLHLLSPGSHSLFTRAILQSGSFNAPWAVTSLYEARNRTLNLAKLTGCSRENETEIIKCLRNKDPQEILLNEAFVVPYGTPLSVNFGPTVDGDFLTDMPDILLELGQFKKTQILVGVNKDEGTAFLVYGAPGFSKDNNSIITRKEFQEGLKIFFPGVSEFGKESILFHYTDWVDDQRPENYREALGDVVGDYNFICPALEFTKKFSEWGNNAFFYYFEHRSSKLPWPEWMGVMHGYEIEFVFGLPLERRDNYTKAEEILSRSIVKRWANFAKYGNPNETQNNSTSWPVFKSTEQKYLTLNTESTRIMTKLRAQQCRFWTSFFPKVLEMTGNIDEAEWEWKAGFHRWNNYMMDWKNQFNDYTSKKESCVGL

SMILES	Ki [1] [µM]	Ki [2] [µM]	further results
CCN(CC)CCCOc1ccc2occc(=O)c2c1	1.22	8.36	–
O=c1ccoc2ccc(OCCCN3CCCCC3)cc12	0.0655	2.89	IC50 [3]: Not Active
O=c1ccoc2ccc(OCCN3CCCCCC3)cc12	0.113	1.62	–
C[C@@H]1CCCN1CCCCCOc1ccc2occc(=O)c2c1	0.134	0.583	–
CCN(CC)CCCCCOc1ccc2occc(=O)c2c1	0.218	2.5	–
O=c1ccoc2ccc(OCCCCCN3CCOCC3)cc12	0.0196	2.63	IC50 (Cholinesterase): > 100 µM; activity at 10 µM [4]: 58%
O=c1ccoc2ccc(OCCCN3CCCCCC3)cc12	0.0272	0.75	activity at 10 µM [4]: 54%
O=c1ccoc2ccc(OCCN3CCOCC3)cc12	–	> 10	–
O=c1ccoc2ccc(OCCCCCN3CCCCC3)cc12	0.213	0.49	–
O=c1ccoc2ccc(OCCCCN3CCCCC3)cc12	0.309	1.97	IC50 (Acetylcholinesterase): 5.58 µM; IC50 (Cholinesterase): 87.5 µM; IC50 ([3]; read-out: IC50): 7.2 µM
C[C@@H]1CCCN1CCCCOc1ccc2occc(=O)c2c1	0.104	1.09	–

More lines, in order of falling Ki [2], values ahead:

Ki [1] [µM]	Ki [2] [µM]	SMILES	further results
12.1	30	CCN(CC)CCOc1ccc2occc(=O)c2c1	–
0.499	23.9	O=c1ccoc2ccc(OCCCN3CCCC3)cc12	–
0.245	22.5	O=c1ccoc2ccc(OCCCN3CCOCC3)cc12	IC50 ([3]; read-out: IC50): 1.18 µM
0.809	17.1	CN1CCN(CCCOc2ccc3occc(=O)c3c2)CC1	–
0.0239	14.6	O=c1ccoc2ccc(OCCCCN3CCOCC3)cc12	–
0.604	14.2	CN1CCN(CCOc2ccc3occc(=O)c3c2)CC1	–
2.87	12.5	O=c1ccoc2ccc(OCCN3CCCC3)cc12	–
0.825	9.07	O=c1ccoc2ccc(OCCN3CCCCC3)cc12	–
0.0825	4.1	CN1CCN(CCCCCOc2ccc3occc(=O)c3c2)CC1	–
0.227	3.11	O=c1ccoc2ccc(OCCCCN3CCCC3)cc12	–
0.087	1.45	O=c1ccoc2ccc(OCCCCCN3CCCC3)cc12	IC50 [3]: Not Active
